# Test results reported in ChEMBL document CHEMBL1772976, “Bathymodiolamides A and B, ceramide derivatives from a deep-sea hydrothermal vent invertebrate mussel, Bathymodiolus thermophilus” (J Nat Prod, 2011).
# Key:
# HeLa = assay: Cytotoxicity against human HeLa cells after 48 hrs by MTT assay; assay type: functional, cell-based
# MCF7 = assay: Cytotoxicity against human MCF7 cells after 48 hrs by MTT assay; assay type: functional, cell-based; conditions: MCF7, 48 h
Compound,IC50 (HeLa),IC50 (MCF7)
CCC/C=C\C/C=C\CCC(=O)O[C@@H](COC(=O)CCCCCCCCCCCCC)[C@H](O)[C@H](CO)NC(=O)CCCCCCCCCCC [BATHYMODIOLAMIDE B],0.5 µM,0.2 µM
CCC/C=C\C/C=C\C/C=C\CCCCC(=O)O[C@@H](COC(=O)CCCCCCCCCCCCCCC)[C@H](O)[C@H](CO)NC(=O)CCCCCCCCCCC [BATHYMODIOLAMIDE A],0.4 µM,0.1 µM
